What was measured:
Ba/F3 ERBB2 YVMA = Ba/F3 ERBB2 YVMA (Homo sapiens, UniProt P04626, DUP772-775, cells depend on it); assay: Cell viability assay (CellTiter Glo) in Ba/F3 cells engineered to express ERBB2 YVMA; assay type: cell-based, mouse; conditions: Ba/F3 cells expressing human ERBB2 YVMA mutant, 72 hours, % viability, read-out: Ba/F3 ERBB2 YVMA IC50
Summary of the method: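 IL-3-independent mouse Ba/F3 line stably transduced with human ERBB2 YVMA, seeded at 3000 cells/well, exposed to serially diluted compound (≤0.1% DMSO) for 72 h at 37° C. ATP read by CellTiter Glo luminescence, normalised to DMSO and media-only controls; sigmoidal nonlinear regression fit.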

[1] = target: T1, phosphorylated ERBB2 (pERBB2) (Homo sapiens, UniProt P04626); assay: Detection of phosphorylated ERBB2 (pERBB2) by ELISA in BT-474 cells; assay type: cell-based; conditions: four hour incubation with compound
T1 construct: endogenous in cells; host or cells: BT-474
T1 sequence (P04626 23-1255): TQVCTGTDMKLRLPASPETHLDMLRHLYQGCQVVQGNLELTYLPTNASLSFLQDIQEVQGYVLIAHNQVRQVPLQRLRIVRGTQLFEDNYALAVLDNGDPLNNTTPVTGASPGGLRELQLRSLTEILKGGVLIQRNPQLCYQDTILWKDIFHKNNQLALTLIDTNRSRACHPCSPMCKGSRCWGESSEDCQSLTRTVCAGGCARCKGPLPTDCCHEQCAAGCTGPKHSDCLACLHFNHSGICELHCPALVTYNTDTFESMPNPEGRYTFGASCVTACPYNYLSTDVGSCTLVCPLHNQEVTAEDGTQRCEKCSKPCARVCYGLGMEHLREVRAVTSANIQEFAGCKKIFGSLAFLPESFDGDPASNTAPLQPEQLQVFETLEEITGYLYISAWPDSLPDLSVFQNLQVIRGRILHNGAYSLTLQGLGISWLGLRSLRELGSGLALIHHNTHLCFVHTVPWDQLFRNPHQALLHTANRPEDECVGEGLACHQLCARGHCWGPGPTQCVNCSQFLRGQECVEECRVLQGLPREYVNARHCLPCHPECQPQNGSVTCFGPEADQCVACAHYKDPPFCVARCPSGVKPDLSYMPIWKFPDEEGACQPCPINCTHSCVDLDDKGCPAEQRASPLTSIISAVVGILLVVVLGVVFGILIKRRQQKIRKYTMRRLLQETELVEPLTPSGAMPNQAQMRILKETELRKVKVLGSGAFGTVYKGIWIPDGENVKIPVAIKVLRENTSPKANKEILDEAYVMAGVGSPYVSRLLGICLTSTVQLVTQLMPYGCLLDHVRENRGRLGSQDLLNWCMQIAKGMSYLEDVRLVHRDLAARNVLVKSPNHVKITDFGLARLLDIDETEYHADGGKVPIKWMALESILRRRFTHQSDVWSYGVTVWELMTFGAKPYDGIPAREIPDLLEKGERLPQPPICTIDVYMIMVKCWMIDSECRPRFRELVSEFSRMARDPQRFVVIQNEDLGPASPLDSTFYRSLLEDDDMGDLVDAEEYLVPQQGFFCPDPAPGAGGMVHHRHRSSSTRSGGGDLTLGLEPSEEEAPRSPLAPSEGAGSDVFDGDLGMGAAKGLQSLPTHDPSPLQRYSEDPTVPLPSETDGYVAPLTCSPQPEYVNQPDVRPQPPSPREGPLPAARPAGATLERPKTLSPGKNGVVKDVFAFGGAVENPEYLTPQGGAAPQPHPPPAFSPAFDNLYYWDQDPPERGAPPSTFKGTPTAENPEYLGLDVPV
Summary of the method: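 BT-474 cells treated 4 h at 37 °C, 5% CO2 with four-fold dilutions (10 μM to 0.01 nM final). Lysates analysed by ELISA for pERBB2, TMB read at OD 450 nm. % relative activity normalised to no-cell (low) and 0.1% DMSO-treated (high) controls.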

[2] = target: T2, phosphorylated EGFR (pEGFR) (Homo sapiens, UniProt P00533); assay: Detection of phosphorylated EGFR (pEGFR) in EGF-stimulated A431 cells (AlphaLISA); assay type: cell-based; conditions: A431 cells (10% FBS), 4 hours incubation, EGF 30 ng/mL for 10 minutes
T2 construct: performed to measure phosphorylated EGFR levels using A431 cells; endogenous in cells; host or cells: A431
T2 sequence (P00533 25-1210): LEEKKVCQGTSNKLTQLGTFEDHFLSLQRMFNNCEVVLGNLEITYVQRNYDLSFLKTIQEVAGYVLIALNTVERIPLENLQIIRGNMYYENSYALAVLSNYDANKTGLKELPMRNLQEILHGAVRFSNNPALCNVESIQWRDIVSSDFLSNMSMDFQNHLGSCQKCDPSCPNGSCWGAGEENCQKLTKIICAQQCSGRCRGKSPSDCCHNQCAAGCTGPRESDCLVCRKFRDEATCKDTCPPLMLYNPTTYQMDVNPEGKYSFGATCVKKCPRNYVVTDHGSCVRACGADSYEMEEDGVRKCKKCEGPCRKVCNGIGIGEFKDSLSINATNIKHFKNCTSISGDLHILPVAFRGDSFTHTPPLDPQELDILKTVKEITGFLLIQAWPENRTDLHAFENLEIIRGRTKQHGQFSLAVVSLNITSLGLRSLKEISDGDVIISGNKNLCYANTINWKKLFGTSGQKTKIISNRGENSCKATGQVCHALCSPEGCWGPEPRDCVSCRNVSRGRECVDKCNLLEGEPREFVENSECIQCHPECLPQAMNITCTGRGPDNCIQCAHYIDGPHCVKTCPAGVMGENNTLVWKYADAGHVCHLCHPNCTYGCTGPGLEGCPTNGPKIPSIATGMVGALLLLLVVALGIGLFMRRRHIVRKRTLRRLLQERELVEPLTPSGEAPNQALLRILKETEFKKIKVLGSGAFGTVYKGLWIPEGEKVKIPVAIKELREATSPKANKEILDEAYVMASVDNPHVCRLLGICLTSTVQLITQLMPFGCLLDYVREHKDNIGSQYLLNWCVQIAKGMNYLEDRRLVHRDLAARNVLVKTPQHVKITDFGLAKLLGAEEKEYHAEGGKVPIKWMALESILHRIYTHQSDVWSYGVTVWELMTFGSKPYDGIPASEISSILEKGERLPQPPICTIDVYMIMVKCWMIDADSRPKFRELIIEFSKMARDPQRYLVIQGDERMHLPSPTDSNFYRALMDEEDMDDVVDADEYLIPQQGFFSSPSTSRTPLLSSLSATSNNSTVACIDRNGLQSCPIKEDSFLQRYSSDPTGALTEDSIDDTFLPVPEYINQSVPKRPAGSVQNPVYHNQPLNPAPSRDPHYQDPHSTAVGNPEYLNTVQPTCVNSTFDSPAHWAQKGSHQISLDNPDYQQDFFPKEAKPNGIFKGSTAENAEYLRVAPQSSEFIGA
Summary of the method: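 Cells in 10% FBS treated with compound 4 h at 37° C., then stimulated 10 min with 30 ng/mL EGF, lysed, and pEGFR measured by AlphaLISA. Inhibition normalized to DMSO and staurosporine controls; IC50 from four-parameter logistic fit.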

Chain of Ba/F3 ERBB2 YVMA (P04626 with tags, fused parts or gaps DUP772-775): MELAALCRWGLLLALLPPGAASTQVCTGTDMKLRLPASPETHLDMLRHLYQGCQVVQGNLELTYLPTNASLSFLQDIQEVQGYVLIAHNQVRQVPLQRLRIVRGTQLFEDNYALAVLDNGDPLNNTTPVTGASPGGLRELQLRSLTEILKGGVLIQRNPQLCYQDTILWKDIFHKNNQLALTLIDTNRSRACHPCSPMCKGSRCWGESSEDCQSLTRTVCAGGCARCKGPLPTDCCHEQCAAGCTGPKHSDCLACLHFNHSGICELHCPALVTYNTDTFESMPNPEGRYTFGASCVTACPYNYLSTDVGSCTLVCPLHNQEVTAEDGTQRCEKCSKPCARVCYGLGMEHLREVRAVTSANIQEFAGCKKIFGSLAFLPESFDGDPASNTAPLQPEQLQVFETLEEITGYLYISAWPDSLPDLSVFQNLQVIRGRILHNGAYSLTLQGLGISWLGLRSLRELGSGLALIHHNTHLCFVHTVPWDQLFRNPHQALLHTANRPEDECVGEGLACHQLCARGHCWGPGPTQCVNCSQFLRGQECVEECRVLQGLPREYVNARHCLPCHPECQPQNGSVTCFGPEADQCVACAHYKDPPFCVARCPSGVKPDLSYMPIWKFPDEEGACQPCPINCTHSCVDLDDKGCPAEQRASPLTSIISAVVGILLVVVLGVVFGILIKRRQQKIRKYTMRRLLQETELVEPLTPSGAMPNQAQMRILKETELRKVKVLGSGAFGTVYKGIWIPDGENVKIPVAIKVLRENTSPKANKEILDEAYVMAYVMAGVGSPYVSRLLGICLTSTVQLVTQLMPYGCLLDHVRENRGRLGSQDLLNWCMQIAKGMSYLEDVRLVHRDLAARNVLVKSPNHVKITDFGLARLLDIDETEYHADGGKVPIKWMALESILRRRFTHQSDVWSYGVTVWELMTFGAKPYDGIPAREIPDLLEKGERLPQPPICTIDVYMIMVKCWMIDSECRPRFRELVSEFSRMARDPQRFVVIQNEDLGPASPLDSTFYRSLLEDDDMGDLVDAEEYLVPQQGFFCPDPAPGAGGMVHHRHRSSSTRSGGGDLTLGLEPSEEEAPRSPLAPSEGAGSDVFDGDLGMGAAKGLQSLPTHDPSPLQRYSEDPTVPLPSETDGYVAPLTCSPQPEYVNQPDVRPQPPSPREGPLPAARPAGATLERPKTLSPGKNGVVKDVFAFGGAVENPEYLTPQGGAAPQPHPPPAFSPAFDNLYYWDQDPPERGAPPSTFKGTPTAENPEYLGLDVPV

Row | Structure (SMILES) | IC50 [1] [nM] | IC50 [2] [nM] | GI50 (Ba/F3 ERBB2 YVMA) [nM]
1 | C=CC(=O)N1CC[C@H](Oc2ccc3ncnc(Nc4ccc(Oc5ccn6ncnc6c5)c(C)c4)c3c2)C1 [Compound 1, (S)-1-(3-((4-((4-([1,2,4]triazolo[1,5-a]pyridin-7-yloxy)-3-methylphenyl)amino)quinazolin-6-yl)oxy)pyrrolidin-1-yl)prop-2-en-1-one] | 5.68 | 328 | 8.98
2 | C=CC(=O)N1CCN(c2ccc3ncnc(Nc4ccc(Oc5ccn6ncnc6c5)c(C)c4)c3n2)C[C@@H]1C [Compound 9, 1-[(2S)-2-methyl-4-{4-[(3-methyl-4-{[1,2,4]triazolo[1,5-a]pyridin-7-yloxy}phenyl)amino]pyrido[3,2-d]pyrimidin-6-yl}piperazin-1-yl]prop-2-en-1-one] | 10.7 | 1030 | 7.5
3 | C=CC(=O)N1CCN(c2ccc3ncnc(Nc4ccc(Cc5ccc6c(c5)ncn6C)c(C)c4)c3c2F)C[C@H]1C [Compound 78, 1-[(2R)-4-[5-fluoro-4-({3-methyl-4-[(1-methyl-1,3-benzodiazol-5-yl)methyl]phenyl}amino)quinazolin-6-yl]-2-methylpiperazin-1-yl]prop-2-en-1-one] | 70.4 | 5130 | 22.6
4 | C=CC(=O)N1CCN(c2ncc3ncnc(Nc4ccc(Oc5ccn6ncnc6c5)c(C)c4)c3n2)[C@@H](C)C1 [Compound 70, 1-[(3S)-3-methyl-4-{8-[(3-methyl-4-{[1,2,4]triazolo[1,5-a]pyridin-7-yloxy}phenyl)amino]pyrimido[5,4-d][1,3]diazin-2-yl}piperazin-1-yl]prop-2-en-1-one] | 16.3 | 2320 | 9.96
5 | C=CC(=O)N1CC2CCC(C1)N2c1ccc2ncnc(Nc3ccc(Oc4ccn5ncnc5c4)c(C)c3)c2n1 [Compound 17, 1-(8-{4-[(3-methyl-4-{[1,2,4]triazolo[1,5-a]pyridin-7-yloxy}phenyl)amino]pyrido[3,2-d]pyrimidin-6-yl}-3,8-diazabicyclo[3.2.1]octan-3-yl)prop-2-en-1-one] | 20.1 | 179 | 5.91
6 | CC#CC(=O)N1CCN(c2ccc3ncnc(Nc4ccc(Oc5ccn6ncnc6c5)c(C)c4)c3n2)C[C@@H]1C [Compound 22, 1-[(2S)-2-methyl-4-{4-[(3-methyl-4-{[1,2,4]triazolo[1,5-a]pyridin-7-yloxy}phenyl)amino]pyrido[3,2-d]pyrimidin-6-yl}piperazin-1-yl]but-2-yn-1-one] | 62.8 | > 10000 | 34.9
7 | C=CC(=O)N1CC[C@H](Nc2ccc3ncnc(Nc4ccc(Oc5ccn6ncnc6c5)c(C)c4)c3n2)C1 [Compound 43, 1-[(3S)-3-({4-[(3-methyl-4-{[1,2,4]triazolo[1,5-a]pyridin-7-yloxy}phenyl)amino]pyrido[3,2-d]pyrimidin-6-yl}amino)pyrrolidin-1-yl]prop-2-en-1-one] | 5.11 | 61.2 | 3.93
8 | C=CC(=O)N1CCN(c2ccc3ncnc(Nc4ccc(Cc5ccn6ncnc6c5)c(C)c4)c3n2)[C@@H](C)C1 [Compound 66, (S)-1-(4-(4-((4-([1,2,4]triazolo[1,5-a]pyridin-7-ylmethyl)-3-methylphenyl)amino)pyrido[3,2-d]pyrimidin-6-yl)-3-methylpiperazin-1-yl)prop-2-en-1-one] | 18 | 9020 | 12.5
9 | C=CC(=O)N1CCN(c2ccc3ncnc(Nc4ccc(Oc5ccc6c(c5)ncn6C)c(C)c4)c3c2)C[C@H]1C [Compound 58, 1-[(2R)-2-methyl-4-[4-({3-methyl-4-[(1-methyl-1,3-benzodiazol-5-yl)oxy]phenyl}amino)quinazolin-6-yl]piperazin-1-yl]prop-2-en-1-one] | 31.4 | 2460 | 24.1
10 | C=CC(=O)N1CC[C@@H](Oc2ccc3ncnc(Nc4ccc(Oc5ccc6c(c5)ncn6C)c(C)c4)c3c2)C1 [Compound 37, 1-[(3R)-3-{[4-({3-methyl-4-[(1-methyl-1,3-benzodiazol-5-yl)oxy]phenyl}amino)quinazolin-6-yl]oxy}pyrrolidin-1-yl]prop-2-en-1-one] | 33.7 | 2880 | 52.8
11 | C=CC(=O)N1C2CCC1CN(c1ccc3ncnc(Nc4ccc(Oc5ccc6c(c5)ncn6C)c(C)c4)c3n1)C2 [Compound 74, 1-(3-(4-((3-methyl-4-((1-methyl-1H-benzo[d]imidazol-5-yl)oxy)phenyl)amino)pyrido[3,2-d]pyrimidin-6-yl)-3,8-diazabicyclo[3.2.1]octan-8-yl)prop-2-en-1-one] | 37.2 | 1030 | 27.9
12 | C=CC(=O)N1CCN(c2ccc3ncnc(Nc4ccc(Cc5ccc6c(c5)ncn6C)c(C)c4)c3c2)C[C@H]1C [Compound 54, 1-[(2R)-2-methyl-4-[4-({3-methyl-4-[(1-methyl-1,3-benzodiazol-5-yl)methyl]phenyl}amino)quinazolin-6-yl]piperazin-1-yl]prop-2-en-1-one] | 21.9 | 2420 | 48.2

Further lines, with some results ahead:

Row | IC50 [1] [nM] | IC50 [2] [nM] | Structure (SMILES) | GI50 (Ba/F3 ERBB2 YVMA) [nM]
13 | 24.7 | > 10000 | C=CC(=O)N1CCN(c2ccc3ncnc(Nc4ccc(Cc5ccn6ncnc6c5)c(C)c4)c3c2)[C@@H](C)C1 [Compound 104, (S)-1-(4-(4-((4-([1,2,4]triazolo[1,5-a]pyridin-7-ylmethyl)-3-methylphenyl)amino)quinazolin-6-yl)-3-methylpiperazin-1-yl)prop-2-en-1-one] | 65.1
14 | 31.6 | > 10000 | Cc1cc(Nc2ncnc3ccc(N4CCN(C(=O)/C=C/CN(C)C)CC4)c(F)c23)ccc1Cc1ccn2ncnc2c1 [Compound 92, (2E)-4-(dimethylamino)-1-(4-{5-fluoro-4-[(3-methyl-4-{[1,2,4]triazolo[1,5-a]pyridin-7-ylmethyl}phenyl)amino]quinazolin-6-yl}piperazin-1-yl) but-2-en-1-one] | 110
15 | 53 | 1270 | C=CC(=O)N1C2CCC1CN(c1ccc3ncnc(Nc4ccc(Cc5ccc6c(c5)ncn6C)c(C)c4)c3n1)C2 [Compound 123, 1-(3-(4-((3-methyl-4-((1-methyl-1H-benzo[d]imidazol-5-yl)methyl)phenyl)amino)pyrido[3,2-d]pyrimidin-6-yl)-3,8-diazabicyclo[3.2.1]octan-8-yl)prop-2-en-1-one] | 9.61
16 | 26 | 97 | C=CC(=O)N1CCN(c2ccc3ncnc(Nc4ccc(Oc5ccc6scnc6c5)c(C)c4)c3n2)CC1 [Compound 119, 1-(4-(4-((4-(benzo[d]thiazol-5-yloxy)-3-methylphenyl)amino)pyrido[3,2-d]pyrimidin-6-yl)piperazin-1-yl)prop-2-en-1-one] | 4.67
17 | 65.6 | 186 | C=CC(=O)N1CCN(c2ccc3ncnc(Nc4ccc(O[C@@H]5CCCOC5)c(C)c4)c3n2)CC1 [Compound 98, 1-{4-[4-({3-methyl-4-[(3R)-oxan-3-yloxy]phenyl}amino)pyrido[3,2-d]pyrimidin-6-yl]piperazin-1-yl}prop-2-en-1-one] | 64.4
18 | 18.1 | 1060 | C=CC(=O)N1CCN(c2cc3c(Nc4ccc(Oc5ccc6c(c5)ncn6C)c(C)c4)ncnc3cn2)CC1 [Compound 106, 1-{4-[4-({3-methyl-4-[(1-methyl-1,3-benzodiazol-5-yl)oxy]phenyl}amino)pyrido[3,4-d]pyrimidin-6-yl]piperazin-1-yl}prop-2-en-1-one formic acid] | 10.3
19 | 9.86 | 3070 | C=CC(=O)N1CCN(c2ccc3ncnc(Nc4ccc(Cc5ccn6ncnc6c5)c(C)c4)c3n2)CC1 [Compound 110, 1-(4-(4-((4-([1,2,4]triazolo[1,5-a]pyridin-7-ylmethyl)-3-methylphenyl)amino)pyrido[3,2-d]pyrimidin-6-yl)piperazin-1-yl)prop-2-en-1-one] | 13.3
20 | 19 | 5380 | C=CC(=O)N1CCN(c2ccc3ncnc(Nc4ccc(Oc5ccc6c(c5)ncn6C)c(C)c4)c3c2)[C@@H](C)C1 [Compound 89, 1-[(3S)-3-methyl-4-[4-({3-methyl-4-[(1-methyl-1,3-benzodiazol-5-yl)oxy]phenyl}amino)quinazolin-6-yl]piperazin-1-yl]prop-2-en-1-one] | 152
21 | 16.6 | 729 | C=CC(=O)N1CCN(c2ccc3ncnc(Nc4ccc(Oc5ccc6c(c5)ncn6C)c(C)c4)c3c2)CC1 [Compound 88, 1-{4-[4-({3-methyl-4-[(1-methyl-1,3-benzodiazol-5-yl)oxy]phenyl}amino)quinazolin-6-yl]piperazin-1-yl}prop-2-en-1-one] | 22
22 | 10.2 | 839 | C=CC(=O)N1CCN(c2cc3c(Nc4ccc(Oc5ccn6ncnc6c5)c(C)c4)ncnc3cn2)CC1 [Compound 109, 1-(4-(4-((4-([1,2,4]triazolo[1,5-a]pyridin-7-yloxy)-3-methylphenyl)amino)pyrido[3,4-d]pyrimidin-6-yl)piperazin-1-yl)prop-2-en-1-one] | 13.4

Reference: US20250136595A1, “ACYLATED HETEROCYCLIC QUINAZOLINE DERIVATIVES AS INHIBITORS OF ERBB2” (Enliven Inc., priority 2022, published 2025)
